Source: publication PMC3463587, “A Series of Beta-Carboline Derivatives Inhibit the Kinase Activity of PLKs” (PLoS ONE, 2012)

Legend:
[1] = system: MRC5 cells; test: FACS cell cycle analysis (PI), MRC5; type: cell-based, Human; settings: 48 hr
Protocol: It is well documented that PLK1 is involved in multiple steps in mitosis, such as centrosome maturation and establishment of bipolar spindle. […] Therefore, the down-regulation of PLK1 would change the distribution of cells in different cell cycle stages. To test this possibility, fluorescence-activated cell sorter (FACS) analysis was used to analyze the DNA content of HeLa cells treated with the identified PLK1 inhibitors, DH281, DH285, and DH287. HeLa cells were first incubated in the absence and presence of these compounds at different concentrations (0, 0.12, 0.48 and 1.92 µM) for 48 hr. […] Treatment with a lower concentration of the compounds (0.12 and 0.48 µM) also led to an obvious increase of the cell population in G2/M phase (Figure 4A, Table 3). Moreover, the proportion of HeLa cells in G2/M phase increased over time after incubation in the presence of 0.8 µM of DH281, DH285 and DH287 (Figure 4B, Table 4). […] We also determined the cell cycle distribution of the non-cancer MRC5 cells after treatment with DH281 at different concentrations. […] It is also possible that inhibition of the kinase activity of the whole PLK family by beta-carboline compounds results in the defect in cell cycle progression.
Tumor cells were exposed to vehicle (0.1% DMSO) or compounds at 0, 0.12, 0.48, and 1.92 µM for 48 hr or 0.8 µM for 24, 48, and 72 hr; MRC5 cells were exposed to compounds at 0, 0.12, 0.48, and 1.92 µM for 48 hr. The floated and attached cells were treated by trypsinization and washed with cold PBS. The cells were then fixed with 70% (v/v) ethanol at 4°C overnight. The fixed cells were washed twice with PBS and incubated with 50 µg/mL RNase A (Sigma, USA) and 50 µg/mL propidium iodide (PI) (Sigma, USA) at 37°C for 30 min.

[2] = system: MRC5 cells; test: FITC-Annexin V/PI apoptosis assay, MRC5; type: cell-based, Human; settings: 48 hr
Excerpt: Staining with Annexin V–FITC and propidium iodide (PI) is commonly used to distinguish apoptotic, necrotic, and dead cells. PI is impermeant to live cells and apoptotic cells at early stages, but it stains dead cells and apoptotic cells at late stages through its binding to the nucleic acids. Apoptotic cells in early or late stages are stained positively for Annexin V-FITC that binds to phosphotidylserine. We used FACS analysis to determine the proportion of HeLa cells positive for Annexin V-FITC (FITC), PI, or both. The HeLa cells with PI^−/PI^+ FITC^+ were counted as apoptotic cells (Figure 5). […] However, 16.19% (3.96+12.23) of HeLa cells became FITC positive after treatment with 1.05 µM DH281 for 48 hr. The treatment with 5.25 µM DH281 induced apoptosis among 89.6% (89.51+0.09) of HeLa cells (Table 5). […] In contrast to HeLa cells, the induction of apoptosis by DH281 was much less efficient in non-cancer MRC5 cells (Table 5). Therefore, we conclude that the treatment with compounds DH281, DH285 and DH287 induces substantial apoptosis in HeLa cells, but non-cancer MRC5 cells are much less sensitive to the treatment. The distinct apoptotic responses of HeLa and MRC5 cells to beta-carboline compounds could explain the selectivity of PLK1 inhibitors toward cancer cells.
HeLa cells were either treated with 0, 0.21, 1.05 and 5.25 µM of DH281, DH285 and DH287 for 48 hr, or treated with 1.21 µM compounds for 24, 48 and 72 hr, while MRC5 cells were exposed to compounds at 0, 0.21, 1.05, and 5.25 µM for 48 hr. The cultured cells were harvested, washed three times with PBS, and resuspended in 500 µl binding buffer (10 mM Hepes/sodium hydroxide (pH7.4), 140 mM sodium chloride, and 2.5 mM CaCl2). Then 5 µl FITC-labeled Annexin V (Zhongshan JinQiao Biotechnology Ltd., Beijing) was added and the cells were incubated in the dark for 10 min. We added 5 µl of propidium iodide (PI) (10 µg/ml in binding buffer) to each sample before flow cytometry analysis.

[3] = target: T1, Aurora-A (Homo sapiens, UniProt O14965); test: In vitro kinase assay Aurora A; type: biochemical
T1 sequence (O14965 1-403): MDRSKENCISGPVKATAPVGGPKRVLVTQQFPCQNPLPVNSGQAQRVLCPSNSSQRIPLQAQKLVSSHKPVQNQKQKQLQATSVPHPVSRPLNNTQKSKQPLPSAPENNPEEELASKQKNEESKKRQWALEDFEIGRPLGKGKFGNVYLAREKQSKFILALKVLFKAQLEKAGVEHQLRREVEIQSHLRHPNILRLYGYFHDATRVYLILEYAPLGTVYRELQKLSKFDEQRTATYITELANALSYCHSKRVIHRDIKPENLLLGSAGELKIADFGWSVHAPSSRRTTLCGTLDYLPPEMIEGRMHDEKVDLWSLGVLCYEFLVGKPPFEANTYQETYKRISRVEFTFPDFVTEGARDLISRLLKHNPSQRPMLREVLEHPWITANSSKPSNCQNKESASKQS
Protocol: (§1) The inhibition of PLK1 kinase activity was assessed using the Cyclex PLK1 Assay/Inhibitor Screening Kit (MBL International Corporation, Japan). The kit includes anti-phospho-threonine polyclonal antibody (PPT-07) and peroxidase coupled anti-rabbit IgG antibody as a reporter in a 96-well ELSIA format. Compounds were used at the concentrations from 10^− ^3 to 10^2 µg/ml and the absorbance was determined at 450 nm. A similar protocol was used to determine the kinase inhibition for PLK2, PLK3, Aurora A and Aurora B. The kinase activity of CDK1/cyclinB and CDK2/cyclinE was analyzed in the presence of serially diluted inhibitors. For each reaction, 20 ng of recombinant kinase was used and […] casein from bovine milk (Sigma) was added as the kinase substrate. The kinase reaction buffer contains 8 mM MOPS pH7.0, 0.2 mM EDTA, 0.1 mg/ml histone H1, 10 mM and MgAcetace and [γ^− ^33P-ATP] (500 cpm/pmol). The reaction was initiated by adding the MgATP mix. After incubation for 40 minutes at room temperature, the reaction was stopped by the addition of 3% phosphoric acid solution. We spotted 10 µl of the reaction mixture onto a P30 filtermat and washed three times for 5 min with 75 mM phosphoric acid and once with methanol prior to drying and scintillation counting.

[4] = target: Aurora-B (Homo sapiens, UniProt Q96GD4); test: In vitro kinase assay Aurora B; type: biochemical
Aurora-B, sequence (Q96GD4 whole entry): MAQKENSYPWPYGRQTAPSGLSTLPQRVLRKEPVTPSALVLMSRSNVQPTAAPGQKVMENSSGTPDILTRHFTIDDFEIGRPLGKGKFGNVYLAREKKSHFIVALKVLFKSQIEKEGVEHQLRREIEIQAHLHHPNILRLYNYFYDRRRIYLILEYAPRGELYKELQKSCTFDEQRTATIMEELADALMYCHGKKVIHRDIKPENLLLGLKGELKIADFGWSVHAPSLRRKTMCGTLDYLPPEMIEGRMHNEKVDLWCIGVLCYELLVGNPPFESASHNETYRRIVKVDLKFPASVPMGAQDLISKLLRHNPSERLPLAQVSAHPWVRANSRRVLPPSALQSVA
Protocol: as §1

## Cc1c2c(cc[n+]1Cc1ccccc1)c1ccc(OCc3ccc(F)cc3)cc1n2CCCc1ccccc1 [DH281]
[1]; MRC5, 0.12 µM
  cells in G1: 75.3%
  cells in G2 (G2/M): 15.5%
  cells in S: 9.18%
[1]; MRC5, 0.48 µM
  cells in G1: 68.2%
  cells in G2 (G2/M): 14.6%
  cells in S: 17.3. %
[1]; MRC5, 1.92 µM
  cells in G1: 59.3%
  cells in S: 25.6%
[2]; MRC5, 0.21 µM
  PI+ FITC+ (late apoptotic cells): 5.07%
  PI+ FITC− (dead cells): 1.63%
  PI− FITC− (live cells): 92.4%
[2]; MRC5, 1.05 µM
  PI+ FITC+ (late apoptotic cells): 0.59%
  PI+ FITC− (dead cells): 0.01%
  PI− FITC+ (early apoptotic cells): 13.3%
  PI− FITC− (live cells): 86.1%
[2]; MRC5, 5.25 µM
  PI+ FITC+ (late apoptotic cells): 7.76%
  PI+ FITC− (dead cells): 10.5%
  PI− FITC+ (early apoptotic cells): 18.5%
  PI− FITC− (live cells): 63.2%

## Cc1c2c(cc[n+]1Cc1ccccc1)c1ccc(OCc3ccccc3)cc1n2Cc1ccccc1 [DH287]
[3]
  IC50: 22.6 µM
[4]
  IC50: 24.7 µM
